Measured values reported in patent publication US20180118648A1, “5-SUBSTITUTED-5-HYDROXY-5-ARYL-3-OXO-PENTANOATE DERIVATIVES AND THEIR ENANTIOPURE FORMS” (OKINAWA INSTITUTE OF SCIENCE AND TECHNOLOGY SCHOOL …, priority 2015, published 2018).

Q: Which melting point does the source give for `CCOC(=O)/C=C(\C[C@@](O)(c1cccs1)C(F)(F)F)N[C@H](C)c1ccccc1` [Compound 5ac-1, (S)-ethyl 6,6,6-trifluoro-5-hydroxy-3-(((R)-1-phenylethyl)amino)-5-(thiophen-2-yl)hexa-2-enoate] here?
A: Its melting point is 133 °C.

Q: Which melting point does the source give for `CCOC(=O)/C=C(\C[C@@](O)(c1ccccc1)C(F)(F)F)N[C@H](C)c1ccccc1` [Compound 5a-1, (R)-ethyl 6,6,6,-trifluoro-5-hydroxy-5-phenyl-(((R)-1-phenyl)amino)hex-2-enoate] here?
A: Its melting point is 126 °C.
